Data taken from PMC5620277, “The histone methyltransferase EZH2 as a druggable target in SHH medulloblastoma cancer stem cells” (Oncotarget, 2017).

Biological target: T1, G9a (Homo sapiens, UniProt Q96KQ7)
T1 sequence (Q96KQ7 1-1210): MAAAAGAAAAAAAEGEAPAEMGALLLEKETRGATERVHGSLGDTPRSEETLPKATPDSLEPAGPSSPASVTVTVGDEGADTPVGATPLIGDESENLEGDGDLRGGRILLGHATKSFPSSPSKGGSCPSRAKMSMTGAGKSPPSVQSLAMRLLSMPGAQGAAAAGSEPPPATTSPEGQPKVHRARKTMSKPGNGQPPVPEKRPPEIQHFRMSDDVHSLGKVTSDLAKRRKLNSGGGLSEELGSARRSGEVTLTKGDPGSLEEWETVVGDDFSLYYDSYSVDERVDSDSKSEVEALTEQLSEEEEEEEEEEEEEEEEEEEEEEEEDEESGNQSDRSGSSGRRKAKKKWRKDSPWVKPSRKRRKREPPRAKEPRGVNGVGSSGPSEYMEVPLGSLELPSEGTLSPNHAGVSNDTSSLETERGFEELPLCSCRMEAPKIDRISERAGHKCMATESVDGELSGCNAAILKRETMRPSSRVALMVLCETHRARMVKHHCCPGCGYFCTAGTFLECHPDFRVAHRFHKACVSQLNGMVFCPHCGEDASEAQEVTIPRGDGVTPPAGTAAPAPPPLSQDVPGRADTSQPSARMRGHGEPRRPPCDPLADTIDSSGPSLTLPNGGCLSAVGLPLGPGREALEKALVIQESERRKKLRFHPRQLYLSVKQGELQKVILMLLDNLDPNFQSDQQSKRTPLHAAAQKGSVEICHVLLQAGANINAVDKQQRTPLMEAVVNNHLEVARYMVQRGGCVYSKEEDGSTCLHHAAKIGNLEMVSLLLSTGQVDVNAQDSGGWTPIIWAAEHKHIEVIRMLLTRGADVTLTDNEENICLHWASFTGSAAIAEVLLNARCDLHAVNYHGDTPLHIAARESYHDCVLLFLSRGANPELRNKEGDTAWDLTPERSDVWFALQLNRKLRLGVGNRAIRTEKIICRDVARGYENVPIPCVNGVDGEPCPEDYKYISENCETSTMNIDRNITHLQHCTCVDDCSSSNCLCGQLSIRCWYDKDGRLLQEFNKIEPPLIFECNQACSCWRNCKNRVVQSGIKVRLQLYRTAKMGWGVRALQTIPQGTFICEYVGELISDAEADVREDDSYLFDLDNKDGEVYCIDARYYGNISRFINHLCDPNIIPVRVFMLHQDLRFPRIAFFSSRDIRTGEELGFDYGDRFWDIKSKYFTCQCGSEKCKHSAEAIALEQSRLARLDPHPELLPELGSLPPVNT
Assay: Methyltransferase panel: G9a
Type: biochemical
Details: substrate histone H3 1-21
Experimental: MC3629 was tested in the cell free enzymatic assay (EZH2/PRC2) in 10-dose IC50 mode with 2-fold serial dilution starting from 400 μM solution, using various histone substrates (histone H3/H4 octamer, histone H3/H4 tetramer, histone H3, and core histone) and SAM as the co-substrate. […] (Figure 2B, and Supplementary Figure 2).
The appropriate methyltransferase (MT) substrate (0.05 mg/ml core histone for EZH1 complex, 0.05 mg/ml oligonucleosomes for DOT1L, 5 μM histone H3 (1-21) peptide for G9a, 0.05 mg/ml nucleosomes for MLL1 complex, 0.05 mg/ml core histone for SET7/9, 5 μM histone H4 for PRMT1, and 0.001 mg/ml poly(dI-dC) for DNMT1) was added in freshly prepared Reaction Buffer (50 mM Tris-HCl (pH 8.5), 5 mM MgCl2, 50 mM NaCl, 0.01% Brij35, 1 mM DTT, 1% DMSO). The MT enzyme was delivered into the substrate solution and the mixture was mixed gently. Afterwards, the tested compound dissolved in DMSO was delivered into the enzyme/substrate reaction mixture by using Acoustic Technology (Echo 550, LabCyte Inc. Sunnyvale, CA) in nanoliter range, and 1 μM ^3H-SAM was also added into the reaction mixture to initiate the reaction. The reaction mixture was incubated for 1 h at 30°C and then it was delivered to filter-paper for detection. The data were analyzed using Excel and GraphPad Prism software for IC50 curve fits (for EZH1 complex).

`Cc1cc(C)c(CNC(=O)c2cnn(-c3ccccc3)c2C)c(=O)[nH]1` [MC3629, N-((4,6-dimethyl-2-oxo-1,2-dihydropyridin-3-yl)methyl)-5-methyl-1-phenyl-1H-pyrazole-4-carboxamide] gave an inhibition at 200 µM of 5.1%.
